{"source": "patent US20120009152A1", "about": "“NITRIC OXIDE DONORS FOR TREATMENT OF DISEASE AND INJURY” (priority 2002, published 2012)", "key": {"[1]": {"test_system": "brain-derived endothelial cells", "assay": "Endothelial tube formation, total tube length", "type": "cell-based", "conditions": "vs control medium DMEM 1.4 (0.1); p<0.01", "excerpt": "The enhance induction of angiogenesis is also evident from in vitro studies of tubule formation in brain derived endothelial cells. […] The endothelial cells formed a network of capillary-like structures with numerous intercellular contacts."}, "[2]": {"test_system": "BrdU immunoreactive cells in dentate gyrus, SVZ and OB", "assay": "Cell proliferation (BrdU) in non-ischemic young adult rats", "type": "in vivo, rat", "protocol": "The effects of an NO donor administered to normal young adult rats on the induction of cell proliferation within three regions of brain, the dentate gyrus, the olfactory bulb (OB) and the subventricular zone (SVZ) were tested. […] Young male Wister rats (3-4 month old) received 4 consecutive). I.V bolus doses of DETA/NONOate (0.1 mg/kg each, every 15 min, and total dose of 0.4 mg/kg) on the first experimental day and DETA/NONOate (0.4 mg/kg) was administered (i.p) daily for an additional 6 consecutive days. Rats that received saline were used as a control group. Bromodeoxyuridine (BrdU) was used as mitotic labeling to measure cell proliferation. Animals received daily i.p injections of BrdU (50 mg/kg, Sigma) on the first experimental day and subsequently for 14 consecutive days. Rats were sacrificed at 14 and 42 days after the treatment. BrdU immunoreactive nuclei were counted on a computer monitor to improve visualization and in one focal plane to avoid over-sampling. Structures were sampled either by selecting predetermined areas on each section (OB) or by analyzing entire structures on each section (SVZ and dentate gyrus) (Zhang et al., 2001). All BrdU immunoreactive-positive nuclei in these areas are presented as the number of the BrdU immunoreactive cells/mm^2. Density for the selected several sections was averaged to obtain a mean density value for each animal (Zhang et al., 2001)."}, "[3]": {"test_system": "TuJ1-immunoreactive cells in the subventricular zone and striatum", "assay": "TuJ1 immunostaining of immature neurons after embolic MCA occlusion", "type": "in vivo, rat", "protocol": "Male Wistar rats weighing 320 to 380 g were used in the present study. The middle cerebral artery (MCA) was occluded by placement of an embolus at the origin of the MCA. […] Ischemic rats (n=9) were treated with the same volume of tap water as a control group. Functional tests were performed and body weight was measured before ischemia and at 4, 7, 14, 21, and 28 days after onset of MCA occlusion. All rats were killed 28 days after MCA occlusion. […] These rats were killed 1 hour after the last treatment for measurements of brain levels of cGMP. […] Reverse transcription (RT)-polymerase chain reaction (PCR) was performed to detect PDE5 in brain tissue. […] Reaction product was detected with the use of 3′3′-diaminobenzidine-tetrahydrochloride (DAB; Sigma), For ′III-tubulin (TuJ1) immunostaining, which identifies immature neurons, 12 coronal sections were incubated with the antibody against TuJ1 (1:1000) at 4° C. overnight and were then incubated with a biotinylated horse anti-mouse immunoglobulin antibody at room temperature for 30 minutes. […] BrdU-immunoreactive nuclei were counted on a computer monitor to improve visualization and in 1 focal plane to avoid oversampling. All BrdU-immunoreactive-positive nuclei were counted in both the ipsilateral and contralateral walls of the lateral ventricle of the subventricular zone and in the dentate gyrus. […]"}, "[4]": {"test_system": "rats subjected to embolic middle cerebral artery occlusion", "assay": "Adhesive removal test after embolic MCA occlusion", "type": "in vivo, rat", "protocol": "(§1) Male Wistar rats weighing 320 to 380 g were used in the present study. The middle cerebral artery (MCA) was occluded by placement of an embolus at the origin of the MCA.\n(§2) Ischemic rats (n=9) were treated with the same volume of tap water as a control group. Functional tests were performed and body weight was measured before ischemia and at 4, 7, 14, 21, and 28 days after onset of MCA occlusion. All rats were killed 28 days after MCA occlusion. […] These rats were killed 1 hour after the last treatment for measurements of brain levels of cGMP. […] Experiments were also performed to examine brain PDE5, nonischemic rats and ischemic rats were killed at 2, 4, 24, 48, and 168 hours after the onset of ischemia (n=3 for each time point). Reverse transcription (RT)-polymerase chain reaction (PCR) was performed to detect PDE5 in brain tissue.\nAn adhesive removal test was used to measure somatosensory deficits and was performed before MCA occlusion and at 4, 7, 14, 21 and 28 days after MCA occlusion."}, "[5]": {"test_system": "rats subjected to embolic middle cerebral artery occlusion", "assay": "Infarct volume 28 days after embolic MCA occlusion", "type": "in vivo, rat", "conditions": "28 days after ischemia", "protocol": "as §1, §2\nMeasurement of infarct volume was measured on 7 hematoxylin and eosin-stained coronal sections with the use of a Global Laboratory Image analysis program (Data Translation). Briefly, the area of both hemispheres and the infarct area (mm 2) were calculated by tracing the area on the computer screen. Infarct volume (mm 3) was determined by multiplying the appropriate area by the section interval thickness. The infarct volume is presented as the percent-age of infarct volume of the contralateral hemisphere (indirect volume calculation)."}}}
{"smiles": "NCCN(CCN)/[N+]([O-])=N/O", "note": "[DETANONOate, (Z)-1-[N-(2-aminoethyl)-N-(2-ammonioethyl)aminio]diazen-1-ium-1,2-diolate]", "values": [{"measurement": "Total tube length", "setting": "[1]", "value": "4.6±0.6", "unit": "mm/mm^2"}, {"measurement": "numbers of BrdU reactive cells within the dentate gyrus, SVZ and OB", "setting": "[2]; non-ischemic young adult rats (3-4 month old), DETA/NONOate 0.4 mg/kg daily 7 days, 14 and 42 days, vs saline", "value": "Statistically significant increased"}, {"measurement": "newly generated cells within the dentate gyrus exhibiting neuronal markers NeuN and MAP2", "setting": "[2]; non-ischemic young adult rats administered DETA/NONO-ate", "value": "More than 95%"}]}
{"smiles": "CCCc1nn(C)c2c(=O)[nH]c(-c3cc(S(=O)(=O)N4CCN(C)CC4)ccc3OCC)nc12", "note": "[Sildenafil]", "values": [{"measurement": "numbers of TuJ1-immunoreactive cells in the ipsilateral and contralateral subventricular zones", "setting": "[3]; sildenafil 2 or 5 mg/kg, 28 days after ischemia, vs control rats", "value": "significantly (P=0.05) increased numbers of TuJ1-immunoreactive cells"}, {"measurement": "number of TuJ1 cells in the ipsilateral striatum", "setting": "[3]; sildenafil, vs contralateral hemisphere and ipsilateral striatum of control rats", "value": "significantly increased the number of TuJ1 cells"}, {"measurement": "Adhesive Removal Test", "setting": "[4]; Sildenafil 2 mg/kg, 2 h, 4 d", "value": "96.4 ± 9.8", "unit": "s"}, {"measurement": "Adhesive Removal Test", "setting": "[4]; Sildenafil 2 mg/kg, 2 h, 7 d", "value": "41.9 ± 8.4", "unit": "s"}, {"measurement": "Adhesive Removal Test", "setting": "[4]; Sildenafil 2 mg/kg, 2 h, 14 d", "value": "27.6 ± 3.9", "unit": "s"}, {"measurement": "Adhesive Removal Test", "setting": "[4]; Sildenafil 2 mg/kg, 2 h, 21 d", "value": "23.6 ± 5.1", "unit": "s"}, {"measurement": "Adhesive Removal Test", "setting": "[4]; Sildenafil 2 mg/kg, 2 h, 28 d", "value": "15.9 ± 3.8", "unit": "s"}, {"measurement": "Adhesive Removal Test", "setting": "[4]; Sildenafil 2 mg/kg, 2 h group, Before Ischemia (baseline)", "value": "7.0 ± 0.1", "unit": "s"}, {"measurement": "Adhesive Removal Test", "setting": "[4]; Sildenafil 2 mg/kg, 24 h, 4 d", "value": "102 ± 6.6", "unit": "s"}, {"measurement": "Adhesive Removal Test", "setting": "[4]; Sildenafil 2 mg/kg, 24 h, 7 d", "value": "49.4 ± 4.5", "unit": "s"}, {"measurement": "Adhesive Removal Test", "setting": "[4]; Sildenafil 2 mg/kg, 24 h, 14 d", "value": "14.1 ± 1.3", "unit": "s"}, {"measurement": "Adhesive Removal Test", "setting": "[4]; Sildenafil 2 mg/kg, 24 h, 21 d", "value": "14.0 ± 1.0", "unit": "s"}, {"measurement": "Adhesive Removal Test", "setting": "[4]; Sildenafil 2 mg/kg, 24 h, 28 d", "value": "10.7 ± 0.9", "unit": "s"}, {"measurement": "Adhesive Removal Test", "setting": "[4]; Sildenafil 2 mg/kg, 24 h group, Before Ischemia (baseline)", "value": "6.8 ± 0.3", "unit": "s"}, {"measurement": "Adhesive Removal Test", "setting": "[4]; Sildenafil 5 mg/kg, 2 h, 4 d", "value": "100.7 ± 9.2", "unit": "s"}, {"measurement": "Adhesive Removal Test", "setting": "[4]; Sildenafil 5 mg/kg, 2 h, 7 d", "value": "70.7 ± 10.8", "unit": "s"}, {"measurement": "Adhesive Removal Test", "setting": "[4]; Sildenafil 5 mg/kg, 2 h, 14 d", "value": "38.6 ± 7.9", "unit": "s"}, {"measurement": "Adhesive Removal Test", "setting": "[4]; Sildenafil 5 mg/kg, 2 h, 21 d", "value": "26.0 ± 6.6", "unit": "s"}, {"measurement": "Adhesive Removal Test", "setting": "[4]; Sildenafil 5 mg/kg, 2 h, 28 d", "value": "14.8 ± 3.9", "unit": "s"}, {"measurement": "Adhesive Removal Test", "setting": "[4]; Sildenafil 5 mg/kg, 2 h group, Before Ischemia (baseline)", "value": "16.7 ± 0.4", "unit": "s"}, {"measurement": "Infarct Volume, %", "setting": "[5]; Sildenafil 2 mg/kg, 2 h, percentage of lesion relative to the contralateral hemisphere", "value": "35.2 ± 3.3", "unit": "%"}, {"measurement": "Infarct Volume, %", "setting": "[5]; Sildenafil 2 mg/kg, 24 h", "value": "35.5 ± 0.9", "unit": "%"}, {"measurement": "Infarct Volume, %", "setting": "[5]; Sildenafil 5 mg/kg, 2 h", "value": "37.7 ± 4.3", "unit": "%"}]}
